Measured values published in US20250147039A1, “Compounds for complexation of rare earth elements and/or s-, p-, d- block metals, their coordination compounds, peptide conjugates, method of their preparation and use thereof” (USTAV ORGANICKE CHEMIE A BIOCHEMIE AV CR V.V.I., priority 2021, published 2025).

Key:
[1] = Formation of 1,5-cz-[M(Lig)] from Lig and M^III ions (metal dependent click-zip) (Charts 4, 5); type: physicochemical; conditions: for conversion to 1,5-cz-[M(Lig)], Bi^III: 4% DMSO in MOPS/NaOH buffer pH 7.0, TD728 in 50% i-PrOH; for conversion to 1,5-cz-[M(Lig)], Ir^III / conversion to 1,5-cz-[M(Lig)], Ru^III: 50% i-PrOH in MOPS/NaOH buffer pH 7.0; for conversion to 1,5-cz-[M(Lig)], Sc^III / conversion to 1,5-cz-[M(Lig)], Y^III: MOPS/NaOH buffer pH 7.0, TD728, TD827 in 50% i-PrOH; for conversion to 1,5-cz-[M(Lig)], Y^III: TD714 sum of two diastereoisomers
[2] = Formation of 1,5-cz-[Ln(Lig)] from Lig and Ln^III ions (metal dependent click-zip), MOPS/NaOH buffer pH 7.0, analytical HPLC (Charts 1, 2); conditions: 50% i-PrOH in aq. MOPS/NaOH Buffer pH 7.0
[3] = Formation of 1,5-cz-[M(Lig)] from Lig and M^II ions (metal dependent click-zip) (Charts 6, 7); type: physicochemical; conditions: for conversion to 1,5-cz-[M(Lig)], Pt^II: 50% i-PrOH in MOPS/NaOH buffer pH 7.0; for conversion to 1,5-cz-[M(Lig)], Ca^II / conversion to 1,5-cz-[M(Lig)], Cd^II / conversion to 1,5-cz-[M(Lig)], Mn^II / conversion to 1,5-cz-[M(Lig)], Pb^II / conversion to 1,5-cz-[M(Lig)], Pd^II: MOPS/NaOH buffer pH 7.0, TD728 in 50% i-PrOH
[4] = Dissociation of chelates in aq. 1.0M HCl at 80° C. (acid decomplexation kinetic inertness) (Chart 18); type: physicochemical
[5] = Dissociation of chelates in aq. 0.1M HCl at RT (acid decomplexation kinetic inertness) (Chart 20); type: physicochemical
[6] = Dissociation of chelates in aq. 6.0M HCl at 80° C. (acid decomplexation kinetic inertness) (Chart 17); type: physicochemical
[7] = Dissociation of chelates in aq. 0.1M HCl at 80° C. (acid decomplexation kinetic inertness) (Chart 19); type: physicochemical

Structure (SMILES): CC(C)[Si](C#Cc1cccc(CN2CCN(CC(=O)O)CCN(Cc3cccc(CN=[N+]=[N-])n3)CCN(CC(=O)O)CC2)n1)(C(C)C)C(C)C [TD728]
- conversion to 1,5-cz-[M(Lig)], Bi^III ([1]; 1 week at 80° C.): 29%
- conversion to 1,5-cz-[M(Lig)], Ir^III ([1]; 1 week at 80° C.): 0%
- conversion to 1,5-cz-[M(Lig)], Ru^III ([1]; 1 week at 80° C.): 0%
- conversion to 1,5-cz-[M(Lig)], Sc^III ([1]; 1 week at 80° C.): 2%
- conversion to 1,5-cz-[M(Lig)], Y^III ([1]; 1 week at 80° C.): 50%
- conversion to 1,5-cz-[M(Lig)], Bi^III ([1]; 1 hour at 80° C.): 5%
- conversion to 1,5-cz-[M(Lig)], Ir^III ([1]; 1 hour at 80° C.): 0%
- conversion to 1,5-cz-[M(Lig)], Ru^III ([1]; 1 hour at 80° C.): 0%
- conversion to 1,5-cz-[M(Lig)], Sc^III ([1]; 1 hour at 80° C.): 0%
- conversion to 1,5-cz-[M(Lig)], Y^III ([1]; 1 hour at 80° C.): 1%
- conversion to 1,5-cz-[Ln(Lig)], Ce^III ([2]; after 1 week at 80° C.): 5%
- conversion to 1,5-cz-[Ln(Lig)], Ce^III ([2]; after 1 hour at 80° C.): 0%
- conversion to 1,5-cz-[Ln(Lig)], Dy^III ([2]; after 1 week at 80° C.): 54%
- conversion to 1,5-cz-[Ln(Lig)], Dy^III ([2]; after 1 hour at 80° C.): 1%
- conversion to 1,5-cz-[Ln(Lig)], Er^III ([2]; after 1 week at 80° C.): 72%
- conversion to 1,5-cz-[Ln(Lig)], Er^III ([2]; after 1 hour at 80° C.): 1%
- conversion to 1,5-cz-[Ln(Lig)], Eu^III ([2]; after 1 week at 80° C.): 35%
- conversion to 1,5-cz-[Ln(Lig)], Eu^III ([2]; after 1 hour at 80° C.): 0%
- conversion to 1,5-cz-[Ln(Lig)], Gd^III ([2]; after 1 week at 80° C.): 32%
- conversion to 1,5-cz-[Ln(Lig)], Gd^III ([2]; after 1 hour at 80° C.): 0%
- conversion to 1,5-cz-[Ln(Lig)], Ho^III ([2]; after 1 week at 80° C.): 60%
- conversion to 1,5-cz-[Ln(Lig)], Ho^III ([2]; after 1 hour at 80° C.): 1%
- conversion to 1,5-cz-[Ln(Lig)], La^III ([2]; after 1 week at 80° C.): 13%
- conversion to 1,5-cz-[Ln(Lig)], La^III ([2]; after 1 hour at 80° C.): 0%
- conversion to 1,5-cz-[Ln(Lig)], Lu^III ([2]; after 1 week at 80° C.): 88%
- conversion to 1,5-cz-[Ln(Lig)], Lu^III ([2]; after 1 hour at 80° C.): 2%
- conversion to 1,5-cz-[Ln(Lig)], Nd^III ([2]; after 1 week at 80° C.): 24%
- conversion to 1,5-cz-[Ln(Lig)], Nd^III ([2]; after 1 hour at 80° C.): 0%
- conversion to 1,5-cz-[Ln(Lig)], Pr^III ([2]; after 1 week at 80° C.): 23%
- conversion to 1,5-cz-[Ln(Lig)], Pr^III ([2]; after 1 hour at 80° C.): 0%
- conversion to 1,5-cz-[Ln(Lig)], Sm^III ([2]; after 1 week at 80° C.): 34%
- conversion to 1,5-cz-[Ln(Lig)], Sm^III ([2]; after 1 hour at 80° C.): 0%
- conversion to 1,5-cz-[Ln(Lig)], Tb^III ([2]; after 1 week at 80° C.): 49%
- conversion to 1,5-cz-[Ln(Lig)], Tb^III ([2]; after 1 hour at 80° C.): 0%
- conversion to 1,5-cz-[Ln(Lig)], Tm^III ([2]; after 1 week at 80° C.): 84%
- conversion to 1,5-cz-[Ln(Lig)], Tm^III ([2]; after 1 hour at 80° C.): 1%
- conversion to 1,5-cz-[Ln(Lig)], Yb^III ([2]; after 1 week at 80° C.): 88%
- conversion to 1,5-cz-[Ln(Lig)], Yb^III ([2]; after 1 hour at 80° C.): 2%
- conversion to 1,5-cz-[M(Lig)], Pt^II ([3]; 1 week at 80° C.): 0%
- conversion to 1,5-cz-[M(Lig)], Ca^II ([3]; 1 week at 80° C.): 37%
- conversion to 1,5-cz-[M(Lig)], Cd^II ([3]; 1 week at 80° C.): 36%
- conversion to 1,5-cz-[M(Lig)], Mn^II ([3]; 1 week at 80° C.): 1%
- conversion to 1,5-cz-[M(Lig)], Pb^II ([3]; 1 week at 80° C.): 14%
- conversion to 1,5-cz-[M(Lig)], Pd^II ([3]; 1 week at 80° C.): 1%
- conversion to 1,5-cz-[M(Lig)], Pt^II ([3]; 1 hour at 80° C.): 0%
- conversion to 1,5-cz-[M(Lig)], Ca^II ([3]; 1 hour at 80° C.): 0%
- conversion to 1,5-cz-[M(Lig)], Mn^II ([3]; 1 hour at 80° C.): 0%
- conversion to 1,5-cz-[M(Lig)], Pb^II ([3]; 1 hour at 80° C.): 0%
- conversion to 1,5-cz-[M(Lig)], Pd^II ([3]; 1 hour at 80° C.): 1%
- conversion to 1,5-cz-[M(Lig)], Cd^II ([3]; 1 hour at 80° C., TD714 sum of two diastereoisomers): 1%

Structure (SMILES): O=C([O-])CN1CCN2CCN(CC(=O)[O-])CCN(CC1)Cc1cccc(n1)-c1cnnn1Cc1cc(-c3ccccc3)cc(n1)C2.[Pb+2] [TD876]
- fraction of intact chelate ([4]; 1 month): 0%
- fraction of intact chelate ([4]; 1 week): 0%
- fraction of intact chelate ([4]; 1 hour): 0%
- fraction of intact chelate ([4]; 1 day): 0%
- fraction of intact chelate ([5]; 1 month): 0%
- fraction of intact chelate ([5]; 1 week): 0%
- fraction of intact chelate ([5]; 1 hour): 6%
- fraction of intact chelate ([5]; 1 day): 0%
- fraction of intact chelate ([6]; 1 month): 0%
- fraction of intact chelate ([6]; 1 week): 0%
- fraction of intact chelate ([6]; 1 hour): 0%
- fraction of intact chelate ([6]; 1 day): 0%
- fraction of intact chelate ([7]; 1 month): 0%
- fraction of intact chelate ([7]; 1 week): 0%
- fraction of intact chelate ([7]; 1 hour): 0%
- fraction of intact chelate ([7]; 1 day): 0%

Structure (SMILES): O=C1C[N@@]2CC[N@]3CC[N@@](CC[N@](CC2)Cc2cccc(n2)-c2cnnn2Cc2cc(-c4ccccc4)cc(n2)C3)CC(=O)[O][Cd][O]1 [TD880]
- fraction of intact chelate ([4]; 1 month): 63%
- fraction of intact chelate ([4]; 1 week): 90%
- fraction of intact chelate ([4]; 1 hour): 100%
- fraction of intact chelate ([4]; 1 day): 99%
- fraction of intact chelate ([5]; 1 month): 100%
- fraction of intact chelate ([5]; 1 week): 100%
- fraction of intact chelate ([5]; 1 hour): 100%
- fraction of intact chelate ([5]; 1 day): 100%
- fraction of intact chelate ([6]; 1 month): 0%
- fraction of intact chelate ([6]; 1 week): 0%
- fraction of intact chelate ([6]; 1 hour): 43%
- fraction of intact chelate ([6]; 1 day): 0%
- fraction of intact chelate ([7]; 1 month): 100%
- fraction of intact chelate ([7]; 1 week): 100%
- fraction of intact chelate ([7]; 1 hour): 100%
- fraction of intact chelate ([7]; 1 day): 100%

Structure (SMILES): O=C([O-])CN1CCN2CCN(CC(=O)[O-])CCN(CC1)Cc1cccc(n1)-c1cnnn1Cc1cc(-c3ccccc3)cc(n1)C2.[Zn+2] [TD890]
- fraction of intact chelate ([4]; 1 month): 0%
- fraction of intact chelate ([4]; 1 week): 0%
- fraction of intact chelate ([4]; 1 hour): 0%
- fraction of intact chelate ([4]; 1 day): 0%
- fraction of intact chelate ([5]; 1 month): 5%
- fraction of intact chelate ([5]; 1 week): 54%
- fraction of intact chelate ([5]; 1 hour): 100%
- fraction of intact chelate ([5]; 1 day): 93%
- fraction of intact chelate ([6]; 1 month): 0%
- fraction of intact chelate ([6]; 1 week): 0%
- fraction of intact chelate ([6]; 1 hour): 0%
- fraction of intact chelate ([6]; 1 day): 0%
- fraction of intact chelate ([7]; 1 month): 0%
- fraction of intact chelate ([7]; 1 week): 0%
- fraction of intact chelate ([7]; 1 hour): 46%
- fraction of intact chelate ([7]; 1 day): 0%

Structure (SMILES): O=C1C[N@@]2CC[N@]3CC[N@@](CC[N@](CC2)Cc2cccc(n2)-c2cn(nn2)Cc2cc(-c4ccccc4)cc(n2)C3)CC(=O)[O][Cd][O]1 [TD900]
- fraction of intact chelate ([4]; 1 month): 0%
- fraction of intact chelate ([4]; 1 week): 0%
- fraction of intact chelate ([4]; 1 hour): 0%
- fraction of intact chelate ([4]; 1 day): 0%
- fraction of intact chelate ([5]; 1 month): 63%
- fraction of intact chelate ([5]; 1 week): 91%
- fraction of intact chelate ([5]; 1 hour): 100%
- fraction of intact chelate ([5]; 1 day): 99%
- fraction of intact chelate ([6]; 1 month): 0%
- fraction of intact chelate ([6]; 1 week): 0%
- fraction of intact chelate ([6]; 1 hour): 0%
- fraction of intact chelate ([6]; 1 day): 0%
- fraction of intact chelate ([7]; 1 month): 0%
- fraction of intact chelate ([7]; 1 week): 0%
- fraction of intact chelate ([7]; 1 hour): 56%
- fraction of intact chelate ([7]; 1 day): 0%

Structure (SMILES): O=P1(c2ccccc2)C[N@@]2CC[N@]3CC[N@@](CC[N@](CC2)Cc2cccc(n2)-c2cnnn2Cc2cccc(n2)C3)CP(=O)(c2ccccc2)[O][Gd][O]1 (stereo partly shown) [TD925]
- fraction of intact chelate ([4]; 1 month): 0%
- fraction of intact chelate ([4]; 1 week): 21%
- fraction of intact chelate ([4]; 1 hour): 100%
- fraction of intact chelate ([4]; 1 day): 82%
- fraction of intact chelate ([5]; 1 month): 100%
- fraction of intact chelate ([5]; 1 week): 100%
- fraction of intact chelate ([5]; 1 hour): 100%
- fraction of intact chelate ([5]; 1 day): 100%
- fraction of intact chelate ([6]; 1 month): 0%
- fraction of intact chelate ([6]; 1 week): 0%
- fraction of intact chelate ([6]; 1 hour): 77%
- fraction of intact chelate ([6]; 1 day): 0%
- fraction of intact chelate ([7]; 1 month): 60%
- fraction of intact chelate ([7]; 1 week): 90%
- fraction of intact chelate ([7]; 1 hour): 100%
- fraction of intact chelate ([7]; 1 day): 98%
